This is an account of results in patent publication US9056874B2, “Complement pathway modulators and uses thereof” (NOVARTIS AG, priority 2012, dated 2015).

factor B, sequence (P00751 260-764 limits assumed): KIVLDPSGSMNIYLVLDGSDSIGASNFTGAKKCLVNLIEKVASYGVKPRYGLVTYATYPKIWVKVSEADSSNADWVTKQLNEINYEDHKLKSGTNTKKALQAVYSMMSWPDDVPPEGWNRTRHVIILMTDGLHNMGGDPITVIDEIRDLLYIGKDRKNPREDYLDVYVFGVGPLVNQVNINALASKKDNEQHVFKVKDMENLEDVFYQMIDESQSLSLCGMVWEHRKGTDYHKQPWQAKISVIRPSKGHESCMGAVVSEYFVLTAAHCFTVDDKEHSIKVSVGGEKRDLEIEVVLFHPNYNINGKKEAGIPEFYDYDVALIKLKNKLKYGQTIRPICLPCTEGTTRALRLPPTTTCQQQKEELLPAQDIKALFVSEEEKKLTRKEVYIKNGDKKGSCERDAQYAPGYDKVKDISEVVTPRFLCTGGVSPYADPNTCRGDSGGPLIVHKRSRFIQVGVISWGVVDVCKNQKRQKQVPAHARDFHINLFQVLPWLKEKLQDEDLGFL
factor B, sequence (Q91132 23-649 partner limits assumed): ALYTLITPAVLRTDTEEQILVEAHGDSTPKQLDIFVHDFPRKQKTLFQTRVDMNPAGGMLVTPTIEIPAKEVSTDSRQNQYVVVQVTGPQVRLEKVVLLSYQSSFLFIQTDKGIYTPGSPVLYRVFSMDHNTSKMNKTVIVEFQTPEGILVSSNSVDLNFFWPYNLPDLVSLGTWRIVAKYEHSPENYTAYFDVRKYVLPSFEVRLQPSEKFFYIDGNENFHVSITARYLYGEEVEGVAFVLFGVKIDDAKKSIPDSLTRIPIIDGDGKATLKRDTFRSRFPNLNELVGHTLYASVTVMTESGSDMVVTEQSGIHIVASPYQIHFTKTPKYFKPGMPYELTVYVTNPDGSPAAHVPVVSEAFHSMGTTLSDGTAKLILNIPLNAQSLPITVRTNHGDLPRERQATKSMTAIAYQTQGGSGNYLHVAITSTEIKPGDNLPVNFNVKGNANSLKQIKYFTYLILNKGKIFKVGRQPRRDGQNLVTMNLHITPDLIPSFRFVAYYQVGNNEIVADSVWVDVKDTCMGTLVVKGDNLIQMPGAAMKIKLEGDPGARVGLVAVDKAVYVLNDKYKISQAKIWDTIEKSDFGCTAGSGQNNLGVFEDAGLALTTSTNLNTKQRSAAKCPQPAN
factor B, sequence (Q91132 733-984 partner limits assumed): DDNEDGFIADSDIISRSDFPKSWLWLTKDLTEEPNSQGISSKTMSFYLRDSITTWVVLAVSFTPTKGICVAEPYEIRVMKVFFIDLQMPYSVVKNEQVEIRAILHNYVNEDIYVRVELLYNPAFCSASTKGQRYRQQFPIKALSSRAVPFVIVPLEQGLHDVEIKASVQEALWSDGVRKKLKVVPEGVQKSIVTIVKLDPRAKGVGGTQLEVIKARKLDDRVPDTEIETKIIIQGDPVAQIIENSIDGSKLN
factor B, sequence (Q91132 1264-1642 partner limits assumed): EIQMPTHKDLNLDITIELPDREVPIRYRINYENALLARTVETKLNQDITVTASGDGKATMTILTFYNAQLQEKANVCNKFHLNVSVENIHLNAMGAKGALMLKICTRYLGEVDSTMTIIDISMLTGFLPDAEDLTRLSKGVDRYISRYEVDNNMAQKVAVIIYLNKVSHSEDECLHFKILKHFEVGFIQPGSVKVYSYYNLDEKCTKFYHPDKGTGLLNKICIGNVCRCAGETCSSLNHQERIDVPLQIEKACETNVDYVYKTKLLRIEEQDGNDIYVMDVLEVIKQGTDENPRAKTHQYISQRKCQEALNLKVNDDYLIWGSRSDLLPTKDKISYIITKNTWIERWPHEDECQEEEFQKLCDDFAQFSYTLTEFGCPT

One assay concerns the target factor B (Homo sapiens, UniProt P00751). Nature of the assay: factor B inhibition assay of Biological Example 1. Conditions: IC50 (nM), assay of Biological Example 1 (Table 1). The arrangement: CVF-Bb complex prepared from purified cobra venom factor (1 μM), recombinant human complement factor B; made in house; host or cells: drosophila cells (factor B); E. coli (factor D used to form the complex). Format: biochemical.
Regarding `CCC(O)(c1nc2cc(C#N)ccc2[nH]1)c1c(OC(C)C)cc(C)c2[nH]ccc12` (single isomer, unassigned; (+)) [26-F b) (+), (+)-2-(1-hydroxy-1-(5-isopropoxy-7-methyl-1H-indol-4-yl)propyl)-1H-benzo[d]imidazole-5-carbonitrile], the IC50 amounted to 230 nM. As for `Cc1cc(OCC2CC2)c(C(C)(O)c2nc3cc(C#N)ccc3[nH]2)c2cc[nH]c12` (single isomer, unassigned; (+)) [26-G b) (+), (+)-2-(1-(5-(cyclopropylmethoxy)-7-methyl-1H-indol-4-yl)-1-hydroxyethyl)-1H-benzo[d]imidazole-5-carbonitrile], the IC50 turned out to be 4950 nM. The same measure, in the same setting: for `COc1cc(C)c2[nH]ccc2c1C(C)(OC)c1nc2cc(C#N)ccc2[nH]1` (single isomer, unassigned; (+)) [27-B b) (+), (+)-2-(1-methoxy-1-(5-methoxy-7-methyl-1H-indol-4-yl)ethyl)-1H-benzo[d]imidazole-5-carbonitrile] the value was 60 nM; for `[2H]C([2H])([2H])C(OC)(c1nc2cc(C#N)ccc2[nH]1)c1c(OC)cc(C)c2[nH]ccc12` (single isomer, unassigned; (+)) [27-E b) (+), (+)-2-((^2H3)methyl(methoxy)(5-methoxy-7-methyl-1H-indol-4-yl)methyl)-1H-benzo[d]imidazole-5-carbonitrile], 90 nM; for `COc1cc(C)c2[nH]cc(Cl)c2c1C(O)c1nc2cc(C#N)ccc2[nH]1` (single isomer, unassigned; (+)) [28-C b) (+), (+)-2-((3-chloro-5-methoxy-7-methyl-1H-indol-4-yl)(hydroxy)methyl)-1H-benzo[d]imidazole-5-carbonitrile], 53900 nM. On the same count and under the same terms, for `COc1cc(C)c2[nH]ccc2c1C(O)(c1nc2cc(C#N)ccc2[nH]1)C(F)(F)F` (single isomer, unassigned; (+)) [33-B b) (+), (+)-2-(2,2,2-trifluoro-1-hydroxy-1-(5-methoxy-7-methyl-1H-indol-4-yl)ethyl)-1H-benzo[d]imidazole-5-carbonitrile] the value was 430 nM.

With `COc1cc(C)c2[nH]ccc2c1C(OC)(c1nc2cc(C#N)ccc2[nH]1)C(F)(F)F` (single isomer, unassigned; (+)) [34-B b) (+), (+)-2-(2,2,2-trifluoro-1-methoxy-1-(5-methoxy-7-methyl-1H-indol-4-yl)ethyl)-1H-benzo[d]imidazole-5-carbonitrile], the IC50 was 50 nM.

In the case of `COc1cc(C)c2[nH]ccc2c1C(OCC(=O)O)(c1nc2cc(C#N)ccc2[nH]1)C(F)(F)F` (single isomer, unassigned; (+)) [35-C (+), (+)-2-(1-(5-cyano-1H-benzo[d]imidazol-2-yl)-2,2,2-trifluoro-1-(5-methoxy-7-methyl-1H-indol-4-yl)ethoxy)acetic acid], the IC50 was 4870 nM.

For `CNC(c1nc2cc(C#N)ccc2[nH]1)(c1c(OC)cc(C)c2[nH]ccc12)C(F)(F)F` (single isomer, unassigned; (+)) [38-B b) (+), (+)-2-(2,2,2-trifluoro-1-(5-methoxy-7-methyl-1H-indol-4-yl)-1-(methylamino)ethyl)-1H-benzo[d]imidazole-5-carbonitrile], the IC50 came to 140 nM. The same measure, in the same setting: for `COc1cc(C)c2[nH]ccc2c1C(C)(N)c1nc2cc(C#N)ccc2[nH]1` (single isomer, unassigned; (+)) [41-B b) (+), (+)-2-(1-amino-1-(5-methoxy-7-methyl-1H-indol-4-yl)ethyl)-1H-benzo[d]imidazole-5-carbonitrile] the value was 190 nM; for `CNC(C)(c1nc2cc(C#N)ccc2[nH]1)c1c(OC)cc(C)c2[nH]ccc12` (single isomer, unassigned; (+)) [42-D b) (+), (+)-2-(1-(5-methoxy-7-methyl-1H-indol-4-yl)-1-(methylamino)ethyl)-1H-benzo[d]imidazole-5-carbonitrile], 130 nM; for `Cc1cc(C)c2[nH]ccc2c1C(O)c1nc2cc(C#N)ccc2[nH]1` (single isomer, unassigned; (+)) [64-C b) (+), (+)-2-((5,7-dimethyl-1H-indol-4-yl)(hydroxy)methyl)benzo[d]imidazole-5-carbonitrile], 340 nM. On the same count and under the same terms, under `Cc1cc(CO)c(C(O)c2nc3cc(C#N)ccc3[nH]2)c2cc[nH]c12` (single isomer, unassigned; (+)) [65-D b) (+), (+)-2-(hydroxy(5-(hydroxymethyl)-7-methyl-1H-indol-4-yl)methyl)-1H-benzo[d]imidazole-5-carbonitrile] stands 6200 nM; under `CCOCc1cc(C)c2[nH]ccc2c1C(O)c1nc2cc(C#N)ccc2[nH]1` (single isomer, unassigned; (+)) [66-D b) (+), (+)-2-((5-(ethoxymethyl)-7-methyl-1H-indol-4-yl)(hydroxy)methyl)-1H-benzo[d]imidazole-5-carbonitrile], 30400 nM; under `CCc1cc(C)c2[nH]ccc2c1C(O)c1nc2cc(C#N)ccc2[nH]1` (single isomer, unassigned; (+)) [67-A b) (+), (+)-2-((5-ethyl-7-methyl-1H-indol-4-yl)(hydroxy)methyl)-1H-benzo[d]imidazole-5-carbonitrile], 1160 nM. Same read-out and setting: under `Cc1cc(CC(C)C)c(C(O)c2nc3cc(C#N)ccc3[nH]2)c2cc[nH]c12` (single isomer, unassigned; (+)) [67-C b) (+), (+)-2-(hydroxy(5-(isobutyl)-7-methyl-1H-indol-4-yl)methyl)-1H-benzo[d]imidazole-5-carbonitrile] stands 8770 nM; under `Cc1cc(C(C)C)c(C(O)c2nc3cc(C#N)ccc3[nH]2)c2cc[nH]c12` (single isomer, unassigned; (+)) [67-D b) (+), (+)-2-(hydroxy(5-isopropyl-7-methyl-1H-indol-4-yl)methyl)-1H-benzo[d]imidazole-5-carbonitrile], 3220 nM. Regarding `Cc1cc(Cl)c(C(O)c2nc3cc(C#N)ccc3[nH]2)c2cc[nH]c12` (single isomer, unassigned; (+)) [67-E b) (+), (+)-2-((5-chloro-7-methyl-1H-indol-4-yl)(hydroxy)methyl)-1H-benzo[d]imidazole-5-carbonitrile], the IC50 is 2080 nM. On the same count and under the same terms, for `Cc1cc(C)c2[nH]ccc2c1C(O)c1nc2c(C)c(C#N)ccc2[nH]1` (single isomer, unassigned; (+)) [67-G b) (+), (+)-2-((5,7-dimethyl-1H-indol-4-yl)(hydroxy)methyl)-4-methyl-1H-benzo[d]imidazole-5-carbonitrile] the value was 2980 nM; for `CCc1cc(C)c2[nH]ccc2c1C(OC)c1nc2cc(C#N)ccc2[nH]1` (single isomer, unassigned; (+)) [70-D b) (+), (+)-2-((5-ethyl-7-methyl-1H-indol-4-yl)(methoxy)methyl)-1H-benzo[d]imidazole-5-carbonitrile], 950 nM.

Still in this assay, the particulars now being: assay of Biological Example 1 (Table 1).
As for `Cc1cc(OC(C)C)c(C(C)(O)c2nc3cc(C#N)ccc3[nH]2)c2cc[nH]c12` (single isomer, unassigned; (+)) [26-E b) (+), (+)-2-(1-hydroxy-1-(5-isopropoxy-7-methyl-1H-indol-4-yl)ethyl)-1H-benzo[d]imidazole-5-carbonitrile], the IC50 came out at 170 nM.

Usually IC50 stands for the point on the concentration scale where inhibition reaches its midpoint.
